# Measured values: patent US9958439B2, “Carbohydrate detection” (RICHTER LIFE SCIENCE DEVELOPMENT AB, priority 2012, dated 2018)
# Read-outs that look alike come from different tables or passages of the source.
# What was measured:
# [1] = for RFU change (Correlation analysis): probe-specific excitation λ, emission 545 nm
# Description: (§1) 3 μM of each probe was applied to serial two fold dilutions of the carbohydrate of which the concentration shown here are 5 mg/ml (_.), 2.5 mg/ml (. . . ) 1.25 mg/ml (__) and 0 mg/ml (_). The excitation spectrum of the probe was analyzed for wavelengths 300-500 nm with emission read at 545 nm.
# (§2) 3 μM of each probe was applied to serial two fold dilutions of the carbohydrate. Respective probes were excited at wavelengths unique to each probe (specified in figure), and emission was read at 545 nm.
# (§3) Serial dilutions of carbohydrate suspensions were prepared in dH2O. Concentrations ranging from 10 to 0.039 mg/ml was used for β-1,3-glucan, cellulose and chitin, whereas 5 to 0.019 mg/ml was used for sodium alginate, glucose, amylose, glycogen, cellulobiose, heparin, chondroitin sulfate A. 3 μM of each LCO probe was added to 1 ml aliquots of each concentration of carbohydrate, after which 100 μl was dispensed in triplicates into 96 well plates. Excitation spectra were collected by exciting the sample from 300 to 500 nm and detecting emission at 545 nm. Detection of carbohydrate is concluded when there is a reproducible change in λmax and/or RFU intensity with reference to the negative control. Data from three concentrations, as well as the negative control are shown for each carbohydrate as specified in respective figure.
# (§4) The excitation wavelength (emission detected at 545 nm) selected for each LCO is either (1) the λmax, or (2) the excitation wavelength which suffers the lowest background. A linear regression analysis is performed to determine the relationship between the carbohydrate concentration and RFU.
# [2] = Description: 3 μM of each probe was applied to serial two fold dilutions of the insoluble carbohydrate of which the concentration shown here are 5 mg/ml (_.), 2.5 mg/ml (. . . ), 1.25 mg/ml (__) and 0 mg/ml (_). The excitation spectrum of the probe was analyzed for wavelengths 300-500 nm with emission read at 545 nm.
# (§5) 3 μM of each probe was applied to serial two fold dilutions of the insoluble carbohydrate. Respective probes were excited at wavelengths unique to each probe (specified in figure), and emission was read at 545 nm.
# as §3, §4
# [3] = remark: listed apart in the source
# Description: (§6) The excitation spectrum of the probe was analyzed for wavelengths 300-500 nm with emission read at 545 nm.
# as §2, §3, §4
# [4] = for RFU change (Correlation analysis) / RFU change (Signal deviation with increasing [Carbohydrate]) / λmax change: 3 μM probe; for RFU change (Correlation analysis): probe-specific excitation λ, emission 545 nm; for RFU change (Signal deviation with increasing [Carbohydrate]) / λmax change: spectral analysis, Excitation 300-500, Emission 545; for carbohydrate can be detected and/or differentiated by the LCO: conclusion from change in signal magnitude and/or shift in λmax; for Gradient Parameters (gradient of regression line) / Linear relationship / Quality of Gradient: linear regression
# Description: as §6, §5, §3, §4
# [5] = remark: listed apart in the source
# Description: as §1
# 3 μM of each probe was applied to serial two fold dilutions of the carbohydrate. Respective probes were excited at wavelengths unique to each probe (specified in figure), and emission was read at 545 nm. […] The mean increase in signal (_) with [Glucose] and the fitted regression line (__) is shown.
# as §3, §4
# [6] = for RFU change (Correlation analysis): probe-specific excitation λ, emission 545 nm; for Gradient Parameters (gradient of regression line) / Linear relationship / Quality of Gradient: linear regression
# Description: 3 μM of each probe was applied to serial two fold dilutions of the carbohydrate of which the concentration shown here are 5 mg/ml (_.), 2.5 mg/ml (. . . ), 1.25 mg/ml (__) and 0 mg/ml (_). The excitation spectrum of the probe was analyzed for wavelengths 300-500 nm with emission read at 545 nm.
# as §2, §3, §4
# [7] = Cellulobiose 5-0.019 mg/ml, 3 μM probe, spectral analysis, Excitation 300-500, Emission 545
# [8] = amylose concentration vs RFU, linear regression
# [9] = cellulobiose concentration vs RFU, linear regression
# [10] = sodium alginate concentration vs RFU, linear regression
# [11] = Chondroitin Sulfate A 5-0.019 mg/ml, 3 μM probe, spectral analysis, Excitation 300-500, Emission 545
# [12] = Chondroitin Sulfate A concentration vs RFU, linear regression
# [13] = β-1,3-glucan concentration vs RFU
# [14] = glucose concentration vs RFU, linear regression
# [15] = Glycogen 5-0.019 mg/ml, 3 μM probe, spectral analysis, Excitation 300-500, Emission 545
structure (smiles),measurement,setting,value
"Cl.Cl.O=C(Cc1cc(-c2cccs2)sc1-c1ccc(-c2sc(-c3cccs3)cc2CC(=O)NCCc2c[nH]cn2)s1)NCCc1c[nH]cn1 [pHTA-His, penta Hydrogen Thiophene Acetic acid Histidine]",RFU change (Correlation analysis),"[1]; Amylose 5-0.019 mg/ml, 3 μM probe",Decreases
same,RFU change (Signal deviation with increasing [Carbohydrate]),"[1]; Amylose 5-0.019 mg/ml, 3 μM probe, spectral analysis, Excitation 300-500, Emission 545",Decreases
same,carbohydrate can be detected and/or differentiated by the LCO,"[1]; Amylose, conclusion from change in signal magnitude and/or shift in λmax",can be detected and/or differentiated
same,RFU change (Correlation analysis),"[1]; Cellulobiose 5-0.019 mg/ml, 3 μM probe",Unclear
same,RFU change (Signal deviation with increasing [Carbohydrate]),[1]; [7],Unclear
same,λmax change,[1]; [7],No change
same,Gradient Parameters (gradient of regression line),[1]; [8],−341.5 ± 47.3
same,Linear relationship,[1]; [8],Significant
same,Quality of Gradient,[1]; [8],Negative
same,Gradient Parameters (gradient of regression line),[1]; [9],−5.26 ± 4.87
same,Quality of Gradient,[1]; [9],Horizontal
same,Sensitivity,[1]; to amylose,Yes
same,Sensitivity,[1]; to cellulobiose,No
same,RFU change (Correlation analysis),"[2]; Sodium alginate 5-0.019 mg/ml, 3 μM probe, probe-specific excitation λ, emission 545 nm",Increases
same,RFU change (Signal deviation with increasing [Carbohydrate]),"[2]; Sodium alginate 5-0.019 mg/ml, 3 μM probe, spectral analysis, Excitation 300-500, Emission 545",Increases
same,carbohydrate can be detected and/or differentiated by the LCO,"[2]; Sodium alginate, conclusion from change in signal magnitude and/or shift in λmax",can be detected and/or differentiated
same,Gradient Parameters (gradient of regression line),[2]; [10],199.9 ± 36.3
same,Linear relationship,[2]; [10],Significant
same,Quality of Gradient,[2]; [10],Positive
same,Sensitivity,[2]; to sodium alginate,Yes
same,RFU change (Correlation analysis),"[3]; Chondroitin Sulfate A 5-0.019 mg/ml, 3 μM probe, probe-specific excitation λ, emission 545 nm",Increases
same,RFU change (Signal deviation with increasing [Carbohydrate]),[3]; [11],Increases
same,λmax change,[3]; [11],Blueshift
same,Gradient Parameters (gradient of regression line),[3]; [12],163.8 ± 20.77
same,Linear relationship,[3]; [12],Significant
same,Quality of Gradient,[3]; [12],Positive
same,carbohydrate can be detected and/or differentiated by the LCO,"[3]; Chondroitin sulfate A, conclusion from change in signal magnitude and/or shift in λmax",can be detected and/or differentiated
same,Sensitivity,[3]; to Chondroitin Sulfate A,Yes
same,RFU change (Correlation analysis),[4]; Cellulose 10-[…],Increase
same,RFU change (Signal deviation with increasing [Carbohydrate]),[4]; Cellulose 10-[…],Increase
same,λmax change,[4]; Cellulose 10-[…],Redshift
same,carbohydrate can be detected and/or differentiated by the LCO,[4]; Cellulose,can be detected and/or differentiated
same,RFU change (Correlation analysis),[4]; Chitin 10-[…],Increases
same,RFU change (Signal deviation with increasing [Carbohydrate]),[4]; Chitin 10-[…],Increases
same,λmax change,[4]; Chitin 10-[…],Redshift
same,carbohydrate can be detected and/or differentiated by the LCO,[4]; Chitin,can be detected and/or differentiated
same,Gradient Parameters (gradient of regression line),[4]; cellulose concentration vs RFU,725.9 ± 124.6
same,Linear relationship,[4]; cellulose concentration vs RFU,Significant
same,Quality of Gradient,[4]; cellulose concentration vs RFU,Positive
same,Gradient Parameters (gradient of regression line),[4]; chitin concentration vs RFU,117.2 ± 25.7
same,Linear relationship,[4]; chitin concentration vs RFU,Significant
same,Quality of Gradient,[4]; chitin concentration vs RFU,Positive
same,Sensitivity,[4]; to cellulose,Yes
same,Sensitivity,[4]; to chitin,Yes
same,Sensitivity,"[4]; to β-1,3-glucan",No
same,RFU change (Correlation analysis),"[4]; β-1,3-glucan 10-[…]",Unclear
same,RFU change (Signal deviation with increasing [Carbohydrate]),"[4]; β-1,3-glucan 10-[…]",Unclear
same,Gradient Parameters (gradient of regression line),[4]; [13],−7.071 ± 34
same,Quality of Gradient,[4]; [13],Horizontal
same,RFU change (Correlation analysis),"[5]; Glucose 5-0.019 mg/ml, 3 μM probe, probe-specific excitation λ, emission 545 nm",Unclear
same,RFU change (Signal deviation with increasing [Carbohydrate]),"[5]; Glucose 5-0.019 mg/ml, 3 μM probe, spectral analysis, Excitation 300-500, Emission 545",Increases
same,Gradient Parameters (gradient of regression line),[5]; [14],33.2 ± 25.2
same,Quality of Gradient,[5]; [14],Horizontal
same,Sensitivity,[5]; to glucose,No
same,RFU change (Correlation analysis),"[6]; Glycogen 5-0.019 mg/ml, 3 μM probe",Increases
same,RFU change (Signal deviation with increasing [Carbohydrate]),[6]; [15],Increases
same,λmax change,[6]; [15],Redshift
same,carbohydrate can be detected and/or differentiated by the LCO,"[6]; Glycogen, conclusion from change in signal magnitude and/or shift in λmax",can be detected and/or differentiated
same,RFU change (Correlation analysis),"[6]; Heparin 5-0.019 mg/ml, 3 μM probe",Unclear
same,RFU change (Signal deviation with increasing [Carbohydrate]),"[6]; Heparin 5-0.019 mg/ml, 3 μM probe, spectral analysis, Excitation 300-500, Emission 545",Decreases
same,Gradient Parameters (gradient of regression line),[6]; glycogen concentration vs RFU,130.6 ± 55.6
same,Linear relationship,[6]; glycogen concentration vs RFU,Significant
same,Quality of Gradient,[6]; glycogen concentration vs RFU,Positive
same,Gradient Parameters (gradient of regression line),[6]; heparin concentration vs RFU,26.3 ± 18.5
same,Linear relationship,[6]; heparin concentration vs RFU,Not Significant
same,Quality of Gradient,[6]; heparin concentration vs RFU,Horizontal
same,Sensitivity,[6]; to glycogen,Yes
same,Sensitivity,[6]; to heparin,No
